Laboratory results reported in publication PMC7297862, “In Vivo Tumor Growth Inhibition and Antiangiogenic Effect of Cyclic NGR Peptide-Daunorubicin Conjugates Developed for Targeted Drug Delivery” (Pathology Oncology Research, 2019).
Read-outs that look alike come from different tables or passages of the source.

Columns and labels:
[1] = test system: CD13(+) Kaposi's sarcoma cells (KS); assay: MTT antiproliferative assay on KS cells; type: cell-based; settings: Homo sapiens, 24 h treatment followed by 48 h incubation in drug free medium, average ± SD
Procedure: (§1) KS (Kaposi’s sarcoma) derived from human Kaposi sarcoma and HT-29 (human colorectal adenocarcinoma) cell line obtained from ATCC were cultured in RPMI 1640 medium with glutamine (Roswell Park Memorial Institute Medium, Lonza, Basel, Switzerland), and MRC-5 (normal fibroblast) cells were cultured in DMEM (Dulbecco’s Modified Eagle’s Medium, Lonza). All media were supplemented with 10% heat-inactivated FBS (Fetal Bovine Serum, Euroclone, Milan, Italy), and with 1% penicillin/streptomycin (Sigma-Aldrich). Cells were cultured in sterile T25 or T75 flasks with ventilation cap (Sarstedt, Nümbrecht, Germany) at 37 °C in a humidified atmosphere with 5% CO2.
(§2) For evaluation of in vitro antiproliferative activity of NGR-Dau conjugates and free Dau, cell viability was determined by MTT assay (3-(4,5-dimethylthiazol-2-yl)-2,5-diphenyl-tetrazolium bromide (Sigma Aldrich)). […] The formazan crystals were dissolved in 100 μL of a 1:1 solution of DMSO (Sigma-Aldrich):EtOH (Molar Chemicals) and the absorbance was measured after 15 min at λ = 570 nm by using a microplate reader (Bio-Rad, model 550, Hercules, CA, USA). The IC50 values of the conjugates and free drug were calculated using GraphPad Prism 6 (GraphPad Software, San Diego, CA, USA). […]

[2] = test system: CD13(−) HT-29 human colorectal adenocarcinoma cells; assay: MTT antiproliferative assay on HT-29 cells; type: cell-based; settings: average ± SD
Procedure: as §1, §2

[3] = MTT antiproliferative assay on MRC-5 cells; type: cell-based; settings: human, MRC-5 cells (normal, non-cancerous human fibroblasts), 72 h continuous treatment, average ± SD
Procedure: as §1, §2

[4] = test system: subcutaneous Kaposi's sarcoma bearing SCID mice; assay: Subcutaneous Kaposi's sarcoma model; type: in vivo, mouse; settings: KS s.c. model, free Dau 1 mg/kg 5 treatments
From the text: (§3) The immunodeficient SCID mice on a C.B.-17 background were bred in specific opportunistic and pathogen free isolator breeding rooms. The breeding isolator was supplied with corn-cob bedding and standard VRF1 rodent chow and with acidified (pH = 3) sterilized distilled water. The mice from the breeding rooms were used for the subcutaneous model of KS and orthotopic model of human colon cancer. They were held in filter-top boxes in the experimental barrier rooms, and every box-opening was performed under a Class 100 laminar-flow hood. The animal housing density was in accordance with the international recommendations. The cage components, corn-cob bedding and food (VRF1 from Special Diet Services) were steam-sterilized in an autoclave (121 °C, 20 min). The animals used in these studies were cared for according to the “Guiding Principles for the Care and Use of Animals” based upon the Helsinki declaration, and they were approved by the local ethical committee. Permission license for breeding and performing experiments with laboratory animals: PEI/001/1738-3/2015 and PEI/001/2574–6/2015.
(§4) Kaposi’s sarcoma (KS) cells were injected into SCID female mice (19-24 g) (s.c.), 3 × 10^6 cells per animal in volume of 200 μL M199 medium per animal. Treatment started 35 days after cell inoculation when average tumor volume was 66 mm^3, by i.p. administration. […] Treatment volume was 0.2 mL/animal. Animal weight and tumor volumes were measured initially when the treatment started and at periodic intervals according to the treatment schedule. A digital caliper was used to measure the longest (a) and the shortest diameter (b) of a given tumor. The tumor volume was calculated using the formula V = ab^2 × π/6, whereby a and b represent the measured parameters (length and width). The experiment was terminated on day 70 after tumor transplantation (day 36 of treatment). The mice from all groups were sacrificed by cervical dislocation. Their primary tumors and livers were harvested and weighed.

[5] = test system: orthotopic HT-29 human colon carcinoma bearing SCID mice; assay: Orthotopic HT-29 human colon tumor model; type: in vivo, mouse; settings: orthotopic HT-29 model
From the text: as §3
HT-29 human colon cancer cells were injected into SCID female mice subcutaneously (s.c.), 3 × 10^6 cells per animal in volume of 200 μL M199 medium per animal, in order to establish tumor for transplantation. After 2 weeks, the mice with palpable tumors were sacrificed by cervical dislocation, and the subcutaneous tumor was dissected out aseptically. Tumor pieces of 2 mm^3 were transplanted orthotopically, under aseptic conditions into anesthetized (narcotic mixture: tiletamine, zolazepam, xylazine, butorphanol) SCID female mice (19-25 g). A small midline incision (0.5 cm) was made and the colorectal part of the intestine was exteriorized. Serosa of the site where the tumor pieces were to be implanted were removed. Tumor tissue fragments of HT-29 human colon tumor were implanted on the top of the animal intestine; an 8/0 surgical (polypropylene) suture was used to suture it on the wall of the intestine. The intestine was returned to the abdominal cavity, and the abdominal wall was closed with 4/0 surgical (polyglycolic acid) sutures. The wound was sterilized and the animals were kept in a sterile environment. On the next day, no sign of pain and/or stress of the mice was observed. The treatments started 6 days after tumor transplantation by i.p. administration of the compounds dissolved in distilled water for injection. 8 mice per group were used.
One group of mice were treated with free Dau (1 mg/kg body weight) on days 6, 13 and 20 after tumor transplantation. Animal groups treated with compounds 1 and 2 were administered with a dose of 10 mg/kg Dau content (33.8 and 33.5 mg/kg of each conjugate, respectively) on days 6, 8, 10, 13, 17, 20 and 24 after tumor transplantation. Control group was treated with sterile water as solvent in 0.2 mL volume per animal. The experiment was terminated on day 27 after tumor transplantation (day 22 of treatment). Daunorubicin treated group was terminated on day 24 after tumor transplantation (day 19 of treatment) due to significant weight loss of the animals. The mice from all groups were sacrificed by cervical dislocation. Their primary tumors and livers were harvested and weighed, while metastases were counted in other organs.

[6] = test system: subcutaneous Kaposi's sarcoma primary tumor; assay: Proliferation index (KI-67) in KS primary tumor; type: in vivo, mouse; settings: percentage printed in Fig. 7a
Procedure: as §4, with “The experiment was terminated on day 70 after tumor transplantation (day 36 of treatment). The mice from all groups were sacrificed by cervical dislocation. Their primary tumors and livers were harvested and weighed.” left out
(§5) The routinely formalin-fixed tumors were dehydrated in a graded series of ethanol, infiltrated with xylene and embedded into paraffin at a temperature not exceeding 60 °C. […] The KI-67-positive tumor cells were counted manually per fields of vision under light microscope (400-fold magnification), and 3 fields of view per tumor were evaluated. Proliferation index was calculated as percentage of KI-67 positive cells from all cells in the field of view. The CD31-positive blood vessels were counted manually using light microscope (200-fold magnification), whereby 3 fields of view per tumor were evaluated, and blood vessel density was calculated as number of blood vessels per mm^2.

[7] = test system: orthotopic HT-29 human colon primary tumor; assay: Proliferation index (KI-67) in HT-29 primary tumor; type: in vivo, mouse
Procedure: (§6) HT-29 human colon cancer cells were injected into SCID female mice subcutaneously (s.c.), 3 × 10^6 cells per animal in volume of 200 μL M199 medium per animal, in order to establish tumor for transplantation. After 2 weeks, the mice with palpable tumors were sacrificed by cervical dislocation, and the subcutaneous tumor was dissected out aseptically. Tumor pieces of 2 mm^3 were transplanted orthotopically, under aseptic conditions into anesthetized (narcotic mixture: tiletamine, zolazepam, xylazine, butorphanol) SCID female mice (19-25 g). A small midline incision (0.5 cm) was made and the colorectal part of the intestine was exteriorized. Serosa of the site where the tumor pieces were to be implanted were removed. […]
(§7) One group of mice were treated with free Dau (1 mg/kg body weight) on days 6, 13 and 20 after tumor transplantation. […] Their primary tumors and livers were harvested and weighed, while metastases were counted in other organs.
as §5, with “The CD31-positive blood vessels were counted manually using light microscope (200-fold magnification), whereby 3 fields of view per tumor were evaluated, and blood vessel density was calculated as number of blood vessels per mm^2.” left out

[8] = test system: subcutaneous Kaposi's sarcoma primary tumor; assay: Vascularization (CD31 blood vessel density) in KS primary tumor; type: in vivo, mouse; settings: percentage printed in Fig. 7c
Procedure: as §4, with “The experiment was terminated on day 70 after tumor transplantation (day 36 of treatment). The mice from all groups were sacrificed by cervical dislocation. Their primary tumors and livers were harvested and weighed.” left out
as §5

[9] = test system: orthotopic HT-29 human colon primary tumor; assay: Vascularization (CD31 blood vessel density) in HT-29 primary tumor; type: in vivo, mouse; settings: percentage printed in Fig. 7d
Procedure: as §6, §7
as §5, with “The CD31-positive blood vessels were counted manually using light microscope (200-fold magnification), whereby 3 fields of view per tumor were evaluated, and blood vessel density was calculated as number of blood vessels per mm^2.” left out

For `COc1cccc2c1C(=O)c1c(O)c3c(c(O)c1C2=O)C[C@@](O)(C(C)=O)C[C@@H]3O[C@H]1C[C@H](N)[C@H](O)[C@H](C)O1` [Dau, daunorubicin], the IC50 [1] was 100 ± 10 nM, the IC50 ([2]; 24 h treatment followed by 48 h incubation in drug free medium, read-out: HT-29 (24 h) IC50) was 90 ± 10 nM and the IC50 ([2]; 72 h continuous treatment, read-out: HT-29 (72 h) IC50) was 100 ± 10 nM. The IC50 at 72 h [3] was 250 ± 60 nM, the “decrease of animal body weight at end of experiment” value ([4]; conjugates 10 mg/kg Dau content i.p. 11 treatments, day 70 after cell inoculation, 5 animals per group) was 16.7% and the “inhibition of tumor volume compared to control” value ([4]; conjugates 10 mg/kg Dau content i.p. 11 treatments, end of experiment (day 70)) was 18.6%. For the same compound, the “decrease of liver/body weight ratio in comparison to control” value ([4]; day 70, p < 0.05) was 12.3%, the “inhibition of tumor weight compared to control” value ([5]; conjugates 10 mg/kg Dau content 7 treatments (day 27), free Dau 1 mg/kg 3 treatments (day 24)) was 67.7% and the “animal body weight during treatment” value ([5]; conjugates 10 mg/kg Dau content i.p. 7 treatments, free Dau 1 mg/kg 3 treatments, days after tumor transplantation, 8 animals per group) was “significantly decreased body weight from day 17”. The “liver/body weight ratio, percentage of control” value ([5]; conjugates day 27, Dau day 24) was 85.5%, the “animals with metastases near the primary tumor, out of 8 animals” value ([5]; control 7 out of 8) was 1 and the “decrease of liver/body weight ratio in comparison to control” value ([5]; free Dau 1 mg/kg 3 treatments, p < 0.05) was 14.5%. The “inhibition of weight of metastases in comparison to control” value ([5]; metastases near the primary tumor) was 78.3%, the “tumor weight, percentage of control” value ([5]; percentage printed in Fig. 6b, conjugates day 27, Dau day 24) was 32.3% and the “weight of metastases, percentage of control” value ([5]; percentage printed in Fig. 6d) was 21.7%. The “proliferation index, percentage of control” value [6] was 98.2%, the “proliferation index, percentage of control” value ([7]; percentage printed in Fig. 7b) was 88.8% and the “inhibition of proliferation (KI-67 proliferation index) compared to control” value ([7]; significant) was 11.2%. The “blood vessel density, percentage of control” value [8] was 81.4% and the “blood vessel density, percentage of control” value [9] was 62.0%.
